# Experiments:
# ingrown nail [1] = assay: Deformed-nail corrective treatment with nail softener (First Example, sufficiently grown ingrown nail); type: in vivo; conditions: nail repositioned by fingertips, immobilized with resin for one hour; FIG. 4
# Excerpt: With reference to the drawings, a deformed-nail correcting method using the nail softener according to one embodiment of the present invention will be described below. The cases of ingrown nails include one case of a sufficiently grown nail, and another case of a deep nail. While the deformed-nail correcting method using the nail softener of the present invention can be applied to both the cases, the first example will be described in conjunction with one case where the method is applied to a sufficiently grown nail. An emulsifying agent was first added to ammonium thioglycolate serving as a reducing agent to prepare a 5% (weight %) ammonium thioglycolate mail softener in the form of cream or paste. […] The number of the small through-hole may be changed according to the state of the nail, and may be, for example, two. The prepared nail softener was applied onto the entire surface of the nail at a thickness of about 5 mm, and left the nail untouched. After 25 minutes from the application of the nail softener to the nail, the state of the nail was checked. […] Thus, the nail softener was washed away and removed from the nail using a hot water. […] In order to maintain the corrected position, a resin 12 was attached onto the upper surface of the nail to close the small through-holes 10 formed in the front region of the nail (see FIG. 3). […]
# ingrown nail [2] = assay: Ingrown-nail correction with nail softener in enclosure plus superelastic alloy wire (Second Example, deep nail); type: in vivo; conditions: reposition by action of superelastic alloy wire
# Excerpt: With reference to the drawings, an ingrown-nail correcting method using the enclosure according to one embodiment of the present invention will be described below. As mentioned above, the cases of ingrown nails include one case of a sufficiently grown nail, and another case of a deep nail. While the deformed-nail correcting method using the enclosure of the present invention can be applied to both the cases, the second example will be described in conjunction with one case where the method is applied to a deep nail. An emulsifying agent was first added to ammonium thioglycolate serving as a reducing agent to prepare a 5% (weight %) ammonium thioglycolate mail softener in the form of cream or paste. […] The through-hole P1c was formed to fix one of the ends of a superelastic alloy wire w (see the aforementioned Patent Publication). Further, four small holes P2 serving as anchoring holes of resin r for fixing the other end of the wire were formed in the other lateral side region n2 of the nail. One of the ends of the wire w is inserted into the central through-hole p1c. Then, the wire w was folded toward the other side region n2 or a flat region, and brought into close contact with the surface of the nail. A resin r was applied onto the curved region n1 to fix one end of the wire w. An ultra-fast cure type autopolymerizing resin (GC Unifast II: trade name of GC Co.) was used as the resin. […]
Structure (SMILES),result of the corrective treatment (correction of the deformed nail) (ingrown nail [1]),result of the corrective treatment (reposition of the ingrown nail) (ingrown nail [2])
N[C@@H](CS)C(=O)O [cysteine],substantially the same result,substantially the same result
O=C(O)CS [thioglycolic acid],substantially the same result,substantially the same result

# — patent US20070254955A1, “Nail softener for use in deformed-nail corrective treatment or nail-structure modification, enclosure for external chemicals and method of correcting deformed nail” (priority 2003, published 2007)
